According to PMC3982558, “Influence of the π-coordinated arene on the anticancer activity of ruthenium(II) carbohydrate organometallic complexes” (Frontiers in Chemistry, 2013):

The substances below were run against T1, cathepsin B (Bos taurus, UniProt P07688) (assay: colorimetric cathepsin B assay (Na-CBZ-L-lysine p-nitrophenyl ester), […] h preincubation). Settings: read-out: IC50 values/μM Cat B.
T1 construct: gene CTSB; Crude bovine spleen cathepsin B (Sigma C6286)
Format: biochemical

Substance | IC50 [µM]
Dichlorido(η^6-biphenyl)(3,5,6-bicyclophosphite-1,2-O-cyclohexylidene-α-D-glucofuranose)ruthenium(II) [compound 6] | 8 ± 0.4
dichlorido(η^6-p-cymene)(3,5,6-bicyclophosphite-1,2-O-cyclohexylidene-α-D-glucofuranoside)ruthenium(II) [1b] | 4 ± 0.6
dichlorido(η^6-p-cymene)(3,5,6-bicyclophosphite-1,2-O-isopropylidene-α-D-glucofuranose)ruthenium(II) [1a] | 1.5 ± 0.2
